{"source": "patent US11866474B2", "about": "“Modulating angiogenesis by proteomimetics of vascular endothelial growth factor” (UNIVERSITY OF SOUTH FLORIDA, priority 2021, dated 2024)", "key": {"[1]": {"target": "T1, VEGFR-2 extracellular domain (Met 1-Glu 764) (Homo sapiens, UniProt P35968)", "T1 construct": "VEGFR-2 extracellular domain (Met 1-Glu 764); purchased Creative BioMart USA KDR-6966H", "T1 sequence (P35968 20-764)": "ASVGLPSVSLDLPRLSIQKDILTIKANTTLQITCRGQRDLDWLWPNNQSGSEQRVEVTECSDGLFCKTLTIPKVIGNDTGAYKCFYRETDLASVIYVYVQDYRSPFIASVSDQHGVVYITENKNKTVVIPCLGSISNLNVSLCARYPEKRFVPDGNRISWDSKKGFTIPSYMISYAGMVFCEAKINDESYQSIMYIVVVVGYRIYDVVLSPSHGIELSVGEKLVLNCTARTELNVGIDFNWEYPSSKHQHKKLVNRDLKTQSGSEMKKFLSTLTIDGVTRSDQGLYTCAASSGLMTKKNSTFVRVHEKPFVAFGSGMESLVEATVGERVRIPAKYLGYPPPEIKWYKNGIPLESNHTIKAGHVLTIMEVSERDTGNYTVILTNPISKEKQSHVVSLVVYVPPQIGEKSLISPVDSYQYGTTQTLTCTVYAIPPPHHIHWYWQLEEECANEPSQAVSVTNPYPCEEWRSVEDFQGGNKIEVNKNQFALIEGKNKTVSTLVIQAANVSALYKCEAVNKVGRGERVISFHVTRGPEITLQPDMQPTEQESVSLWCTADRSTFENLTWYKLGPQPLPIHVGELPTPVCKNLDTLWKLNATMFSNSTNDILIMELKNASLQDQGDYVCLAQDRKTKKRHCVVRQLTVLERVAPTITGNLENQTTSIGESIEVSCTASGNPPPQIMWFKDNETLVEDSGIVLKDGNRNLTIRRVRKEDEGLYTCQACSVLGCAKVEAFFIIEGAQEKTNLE", "assay": "Surface plasmon resonance binding to VEGFR-2 extracellular domain", "details": "for Binding affinity (Kd) to VEGFR-2 as determined by SPR: extracellular domain, one-to-one binding model", "experimental": "(§1) Surface plasmon resonance (SPR) assays were carried out to determine the binding affinities of the VEGF mimic sequences toward the extracellular domains of VEGFR-1 and VEGFR-2 (FIGS. 13 and 14).\n(§2) Binding kinetics of VEGF mimics to VEGFR-1 were measured by surface plasmon resonance (SPR) using a Biacore T200 (General Electric Co.). […] protein extracellular domain (Met 1-Asn 756) (FLT1-3809H, Creative BioMart USA) was covalently coupled to CMS chip following manufacturer's instructions. Samples were prepared in RBS-EP+ buffer (pH 7.4) at different concentration and flowed over the sensor chip to interact with the immobilized protein, followed by the running buffer. The dissociation data was collected, and a different concentration was assayed after redundant samples were removed from the protein by treating with KCl (1 M). The final binding kinetics was obtained by fitting using the T200 software with a one-to-one binding model. Binding affinities of mimic sequences to VEGFR-2 were measured using VEGFR-2 extracellular domain (Met 1-Glu 764) (KDR-6966H, Creative BioMart USA) in a similar fashion."}, "[2]": {"target": "T2, VEGFR-1 extracellular domain (Met 1-Asn 756) (Homo sapiens, UniProt P17948)", "T2 construct": "VEGF-1 protein extracellular domain (Met 1-Asn 756); purchased Creative BioMart USA FLT1-3809H", "T2 sequence (P17948 27-756)": "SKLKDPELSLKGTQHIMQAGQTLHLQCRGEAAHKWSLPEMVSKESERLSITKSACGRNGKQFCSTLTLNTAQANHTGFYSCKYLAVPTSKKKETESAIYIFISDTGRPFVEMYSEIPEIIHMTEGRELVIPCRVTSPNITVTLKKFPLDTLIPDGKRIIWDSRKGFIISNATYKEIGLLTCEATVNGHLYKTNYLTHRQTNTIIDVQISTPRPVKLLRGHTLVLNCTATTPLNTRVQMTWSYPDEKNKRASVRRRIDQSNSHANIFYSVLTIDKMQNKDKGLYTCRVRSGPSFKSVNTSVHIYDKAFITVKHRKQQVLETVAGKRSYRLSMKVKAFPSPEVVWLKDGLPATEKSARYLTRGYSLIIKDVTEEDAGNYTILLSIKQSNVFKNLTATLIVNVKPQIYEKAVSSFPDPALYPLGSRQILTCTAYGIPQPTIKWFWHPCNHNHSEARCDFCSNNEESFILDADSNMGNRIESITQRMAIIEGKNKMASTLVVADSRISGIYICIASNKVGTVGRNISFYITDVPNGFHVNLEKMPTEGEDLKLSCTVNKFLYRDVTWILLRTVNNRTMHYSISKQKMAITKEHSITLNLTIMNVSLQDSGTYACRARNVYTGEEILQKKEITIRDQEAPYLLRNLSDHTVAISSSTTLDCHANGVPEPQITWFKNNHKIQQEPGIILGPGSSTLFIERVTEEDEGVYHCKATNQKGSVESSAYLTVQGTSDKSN", "assay": "Surface plasmon resonance binding to VEGFR-1 extracellular domain", "details": "one-to-one binding model", "experimental": "as §1, §2"}, "[3]": {"tested_on": "HUVECs", "assay": "Wound healing (scratch-wound motility) assay", "assay_type": "cell-based, human", "details": "10 μM, in the presence of VEGF165 (50 ng/mL), 24 h", "experimental": "Wound healing is facilitated by the VEGF pathway's effect on cell migration and proliferation.14 The effect of the helical mimic sequences on cell migration and invasion was tested on HUVECs in the presence of VEGF165 using a scratch-wound motility assay. […] HUVEC cells (10^5) were seeded on a 12 well tissue culture plate and allowed to grow for 12 h. The attached cells were then scratched with a sterile […] pipette tip and treated with mimic sequences (10 μM) and/or VEGF165 (50 ng/mL) in serum free medium. […] The wound widths were measured by ImageJ (version 1.50)."}, "[4]": {"tested_on": "HUVECs", "assay": "Transwell cell migration assay", "assay_type": "cell-based, human", "details": "10 μM, in the presence of VEGF165 (50 ng/mL), 12 h", "source_text": "Endothelial cell migration is an essential component of angiogenesis mediated by the VEGF pathway and can be used to assess the effect of drugs on the VEGF pathway. A Transwell migration assay was used to test the effect of the mimic sequences on the migration of human umbilical endothelial cells (HUVECs). […] Given the findings that V2 has a much stronger binding affinity for VEGFR1 than VEGFR2 (FIG. 12), the inventors speculated that this stimulatory effect may be due to its specific binding to VEGFR1, the decoy receptor. It is plausible that inhibition of VEGF-A binding to VEGFR-1 leads to an increased level of VEGF-A to bind and activate VEGFR-2, an indirect activation of the main angiogenic receptor.67 Cell migration assay was performed in triplicates on Transwell permeable support, 8.0 μm pore (Corning, USA). […] Migrated cells at the bottom of the membrane were fixed with 4% paraformaldehyde and stained with Crystal Violet at 37° C. for 20 min and 10 min respectively and counted with Nikon Inverted Microscope ECLIPSE Ti-U."}, "[5]": {"tested_on": "VEGFR-2 (P-VEGFR-2)", "assay": "Western blot of VEGFR-2 phosphorylation in HUVEC lysates", "assay_type": "cell-based, human", "details": "with VEGF-A stimulation", "experimental": "(§3) The effect of VEGF-mimicking sequences on VEGF-A-mediated activation of Akt, a key VEGF downstream signal,^68 and VEGFR-2 was then examined by Western blot (FIG. 8). […] However, the activation of the VEGF pathway by V2 and QK is dependent on the presence of VEGF-A (FIG. 8E). […] HUVECs (1×10^6) were starved for 24 h and treated with a V1, V2, V3 and QK in the presence or absence of VEGF-A165 at 37° C. for 24 h. Cells were then lysed with a lysis buffer containing Protease and Phosphatase Inhibitor (Thermo Scientific) to obtain total cellular proteins, and the amount of protein was quantified using the BCA Protein Assay Kit (Thermo Scientific, Waltham, MA). Proteins were then denatured by boiling at 100° C. for 10 min in the sample buffer and separated by electrophoresis on 10% SDS-[…] minigels. Target proteins were transferred to polyvinylidene difluoride membranes and blocked with 5% BSA in TBST solution for 1 h and then washed three times with TBST (5 min each time). […]"}, "[6]": {"target": "T3, VEGFR-2 (Homo sapiens, UniProt P35968)", "T3 construct": "endogenous in cells; host or cells: HUVEC", "T3 sequence (P35968 20-1356)": "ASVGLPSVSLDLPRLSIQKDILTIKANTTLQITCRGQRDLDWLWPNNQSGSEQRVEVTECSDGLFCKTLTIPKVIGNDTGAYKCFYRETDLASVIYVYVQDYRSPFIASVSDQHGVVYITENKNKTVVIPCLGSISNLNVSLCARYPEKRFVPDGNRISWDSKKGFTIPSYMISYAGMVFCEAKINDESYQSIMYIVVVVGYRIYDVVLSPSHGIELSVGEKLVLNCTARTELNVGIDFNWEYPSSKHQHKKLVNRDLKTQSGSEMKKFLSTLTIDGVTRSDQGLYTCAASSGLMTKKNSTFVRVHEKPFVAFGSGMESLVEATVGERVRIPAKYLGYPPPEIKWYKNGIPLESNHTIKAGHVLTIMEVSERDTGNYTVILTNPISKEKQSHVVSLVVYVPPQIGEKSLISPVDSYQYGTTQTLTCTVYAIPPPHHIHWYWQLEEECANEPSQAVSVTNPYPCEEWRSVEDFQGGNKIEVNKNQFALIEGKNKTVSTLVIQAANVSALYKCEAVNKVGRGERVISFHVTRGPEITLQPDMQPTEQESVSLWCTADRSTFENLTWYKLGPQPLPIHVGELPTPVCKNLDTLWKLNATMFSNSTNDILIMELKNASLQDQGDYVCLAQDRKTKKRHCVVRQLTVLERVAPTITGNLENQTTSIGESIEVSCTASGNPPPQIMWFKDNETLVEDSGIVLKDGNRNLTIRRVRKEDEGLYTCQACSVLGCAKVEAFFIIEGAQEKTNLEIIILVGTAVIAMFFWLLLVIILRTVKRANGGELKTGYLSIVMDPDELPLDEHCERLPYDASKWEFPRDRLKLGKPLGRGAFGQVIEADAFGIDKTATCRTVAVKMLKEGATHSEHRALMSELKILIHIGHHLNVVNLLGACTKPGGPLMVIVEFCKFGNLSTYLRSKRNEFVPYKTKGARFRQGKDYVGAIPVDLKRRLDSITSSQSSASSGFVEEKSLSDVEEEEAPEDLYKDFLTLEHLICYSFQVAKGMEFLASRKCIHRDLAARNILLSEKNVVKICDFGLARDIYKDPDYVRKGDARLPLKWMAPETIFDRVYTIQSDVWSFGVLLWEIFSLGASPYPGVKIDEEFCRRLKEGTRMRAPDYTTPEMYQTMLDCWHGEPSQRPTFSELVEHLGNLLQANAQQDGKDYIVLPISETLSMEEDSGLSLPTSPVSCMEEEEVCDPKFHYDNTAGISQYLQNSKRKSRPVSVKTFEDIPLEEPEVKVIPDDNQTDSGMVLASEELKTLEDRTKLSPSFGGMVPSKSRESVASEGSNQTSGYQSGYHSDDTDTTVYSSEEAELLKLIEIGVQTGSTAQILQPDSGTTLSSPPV", "assay": "Immunofluorescence binding assay with anti-VEGFR-2 antibody", "assay_type": "cell-based", "details": "HUVECs treated with 10 μM, compared to control", "experimental": "(§4) On the basis of the assays conducted, the inventors speculated that distinct cell signaling and angiogenic response are due to the sequences V2 and V3 binding to different VEGFR subtypes. To further characterize the binding profiles of V2 and V3 to VEGFR-1 and VEGFR-2, immunofluorescence studies were carried out using HUVECs and antibodies specific to each receptor. Cells treated with V2 and V3 (10 μM) were fixed and treated with anti-VEGFR-1 and anti-VEGFR-2 antibodies, followed by FITC-labeled secondary antibody and a DAPI counterstain. […] HUVEC cells grown in m-Dish 35 mm, high Glass Bottom (#81158 Ibidi) were treated with V2 and V3 overnight at 37° C. Cells were then washed with TBST twice and fixed with 4% formaldehyde solution (Fisher Chemical) for 20 min at room temperature. This was followed by TBST wash twice and blocking with TBST—5% BSA blocking solution for 1 h at room temperature. After washing the cells with TBST three times, the cells were incubated with anti-VEGFR-1 antibody (Proteintech) and anti-VEGFR-2 antibody (Invitrogen) overnight at 4° C. […] A Nikon fluorescence microscope was used for imaging cells and image analysis was done with Image J software (ImageJ 5.53e, National Institute of Health, USA)."}, "[7]": {"tested_on": "HUVECs", "assay": "Capillary tube formation assay", "assay_type": "cell-based, human", "details": "2 μM, in the presence of VEGF165 (50 ng/mL), 24 h", "experimental": "The ultimate effect of angiogenesis is the formation of vasculature that can support healing, survival, and proliferation. Next, the inventors used HUVECs to investigate the effect of the AA peptide sequences on the formation of capillary-like tube structures in vitro in the presence of VEGF165. […] Nutrient starved HUVECs, for 24 h in 0.5% FBS (sEBM) endothelial basal medium (EBM), were harvested and resuspended in 10% FBS (mEGM) endothelial growth medium. Cells were then seeded in 48 well plate coated with basement membrane extract (BME). To prepare the plates, Costar48 well culture plates were coated with basement membrane (Corning Matrigel Basement Membrane Matrix LDEV-free, 354234) and incubated for 30 min at 37° C. 5×10^4 cells were seeded in each well and treated with VEGF mimic sequences and/or VEGF165, or left untreated. Formation or lack thereof of tube-like structures was monitored over a 24 h period with a Nikon Inverted Microscope ECLIPSE Ti-U."}, "[8]": {"target": "T4, VEGFR-1 (Homo sapiens, UniProt P17948)", "T4 construct": "immunofluorescence studies were carried out using HUVECs and antibodies specific to each receptor; endogenous in cells; host or cells: HUVEC", "T4 sequence (P17948 27-1338)": "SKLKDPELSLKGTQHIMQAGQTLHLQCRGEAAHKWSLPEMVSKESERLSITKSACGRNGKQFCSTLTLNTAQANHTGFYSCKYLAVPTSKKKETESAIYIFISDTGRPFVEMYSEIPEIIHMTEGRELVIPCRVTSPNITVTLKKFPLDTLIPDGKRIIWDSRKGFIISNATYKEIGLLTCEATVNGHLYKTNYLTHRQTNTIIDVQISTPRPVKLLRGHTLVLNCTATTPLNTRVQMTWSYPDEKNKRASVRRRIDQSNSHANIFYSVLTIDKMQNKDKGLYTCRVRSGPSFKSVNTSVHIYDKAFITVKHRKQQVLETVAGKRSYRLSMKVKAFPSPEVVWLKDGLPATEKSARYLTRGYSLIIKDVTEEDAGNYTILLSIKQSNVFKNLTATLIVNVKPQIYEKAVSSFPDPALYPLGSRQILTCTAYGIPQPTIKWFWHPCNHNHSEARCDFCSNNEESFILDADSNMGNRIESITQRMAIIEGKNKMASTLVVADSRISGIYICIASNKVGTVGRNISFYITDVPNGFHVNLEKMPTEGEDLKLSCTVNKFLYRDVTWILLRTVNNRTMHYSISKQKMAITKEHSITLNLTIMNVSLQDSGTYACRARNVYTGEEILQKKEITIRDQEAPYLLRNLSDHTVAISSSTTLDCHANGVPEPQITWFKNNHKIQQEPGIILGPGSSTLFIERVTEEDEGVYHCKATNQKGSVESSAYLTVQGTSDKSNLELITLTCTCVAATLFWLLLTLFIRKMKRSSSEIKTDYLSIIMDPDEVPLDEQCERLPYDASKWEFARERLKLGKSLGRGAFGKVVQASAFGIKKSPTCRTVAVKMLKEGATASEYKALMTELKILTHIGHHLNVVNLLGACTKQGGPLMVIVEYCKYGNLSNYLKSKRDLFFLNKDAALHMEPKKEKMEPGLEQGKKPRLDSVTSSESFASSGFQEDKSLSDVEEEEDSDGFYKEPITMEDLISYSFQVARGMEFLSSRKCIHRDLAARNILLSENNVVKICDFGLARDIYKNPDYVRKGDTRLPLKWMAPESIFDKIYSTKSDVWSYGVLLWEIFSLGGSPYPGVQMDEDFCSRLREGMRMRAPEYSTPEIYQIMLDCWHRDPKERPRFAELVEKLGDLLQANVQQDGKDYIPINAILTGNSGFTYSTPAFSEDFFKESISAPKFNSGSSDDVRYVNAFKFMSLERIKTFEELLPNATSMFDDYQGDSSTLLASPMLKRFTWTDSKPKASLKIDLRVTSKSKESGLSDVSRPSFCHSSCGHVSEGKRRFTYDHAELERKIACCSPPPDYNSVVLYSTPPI", "assay": "Immunofluorescence binding assay with anti-VEGFR-1 antibody", "assay_type": "cell-based", "details": "HUVECs treated with 10 μM, compared to control", "experimental": "as §4"}, "[9]": {"tested_on": "Akt (P-AKT)", "assay": "Western blot of Akt phosphorylation in HUVEC lysates", "assay_type": "cell-based, human", "details": "with VEGF-A stimulation", "experimental": "as §3"}}, "data": [{"smiles": "CC(=O)N[C@@H](CCC(=O)O)CN(CC(=O)N[C@@H](CC(C)C)CN(CC(=O)N[C@@H](Cc1ccccc1)CN(CC(=O)N[C@@H](CCC(=O)O)CN(CC(=O)N[C@@H](Cc1ccc(O)cc1)CN(CC(=O)N[C@@H](CCCCN)CN(CC(=O)N[C@@H](Cc1ccc(O)cc1)CN(CC(=O)N[C@@H](C)CN(CC(N)=O)S(C)(=O)=O)S(C)(=O)=O)S(C)(=O)=O)S(=O)(=O)CCN)S(=O)(=O)CC(C)C)S(=O)(=O)CC(C)C)S(=O)(=O)CCN)S(=O)(=O)CCN", "note": "[V2]", "values": [{"measurement": "Binding affinity (Kd) to VEGFR-2 as determined by SPR", "setting": "[1]", "value": "good binding affinities"}, {"measurement": "Binding affinity (Kd) to VEGFR-1 as determined by SPR", "setting": "[2]", "value": "submicromolar binding affinity"}]}, {"smiles": "CC(=O)N[C@@H](CCC(=O)O)CN(CC(=O)N[C@@H](CC(C)C)CN(CC(=O)N[C@@H](Cc1c[nH]c2ccccc12)CN(CC(=O)N[C@@H](CCC(=O)O)CN(CC(=O)N[C@@H](Cc1ccc(O)cc1)CN(CC(=O)N[C@@H](CCCCN)CN(CC(=O)N[C@@H](Cc1ccc(O)cc1)CN(CC(=O)N[C@@H](C)CN(CC(N)=O)S(C)(=O)=O)S(C)(=O)=O)S(C)(=O)=O)S(=O)(=O)CCN)S(=O)(=O)CC(C)C)S(=O)(=O)CC(C)C)S(=O)(=O)CCN)S(=O)(=O)CCN", "note": "[V3]", "values": [{"measurement": "Selectivity for VEGFR2 (SPR binding)", "setting": "[1]; VEGFR2 over VEGFR1", "value": "remarkable selectivity"}, {"measurement": "Binding affinity (Kd) to VEGFR-2 as determined by SPR", "setting": "[1]", "value": "submicromolar binding affinity"}, {"measurement": "Cell migration in wound healing assay", "setting": "[3]", "value": "virtually completely blocked wound motility"}, {"measurement": "Binding affinity (Kd) to VEGFR-1 as determined by SPR", "setting": "[2]", "value": "good binding affinities"}, {"measurement": "Number of HUVECs migrating (Transwell)", "setting": "[4]", "value": "significantly lowered"}, {"measurement": "Inhibition of phosphorylation of VEGFR-2 at low concentration", "setting": "[5]; 100 nM", "value": "potent inhibition"}, {"measurement": "Phosphorylation of VEGFR-2 (P-VEGFR-2)", "setting": "[5]; 0.1, 0.5, 1, 10 μM", "value": "dose-dependent inhibition of phosphorylation"}, {"measurement": "Fluorescence with anti-VEGFR-2 antibody", "setting": "[6]", "value": "significant reduction of fluorescence"}, {"measurement": "Capillary tube formation", "setting": "[7]", "value": "substantial inhibition of capillary tube formation"}, {"measurement": "Fluorescence with anti-VEGFR-1 antibody", "setting": "[8]", "value": "almost no effect on intensity of fluorescence"}, {"measurement": "Inhibition of phosphorylation of Akt at low concentration", "setting": "[9]; 100 nM", "value": "potent inhibition"}, {"measurement": "Phosphorylation of Akt (P-AKT)", "setting": "[9]; 0.1, 0.5, 1, 10 μM", "value": "dose-dependent inhibition of phosphorylation"}]}]}
